Like-named read-outs stand apart in the source and are kept apart here.
Experiments:
Type in all cases: in vivo
[1] = system: Eclipta prostrate; assay: Composition activity test, post-emergence foliage spray; details: for pest or weed control at 150 g/ha: B 150 g a.i./ha; for pest or weed control at 225 g/ha: B 225 g a.i./ha
Description: (§1) are as follows, and the others were purchased from reagent companies. The technical materials were all dissolved in acetone and diluted with an aqueous solution containing 0.1% emulsifier Tween-80. The dilution is performed as required.
(§2) Weeds were cultivated by a pot culture method. […] Full and uniform weed seeds were selected, soaked in warm water at 25° C. for 6 hours, and germinated in a 28° C. biochemical incubator (darkness). The weed seeds that had just germinated were evenly placed on the surface of the soil and then covered with 0.5-1 cm soil according to the sizes of seeds.
(§3) The culture was carried out in a controllable sunlight greenhouse at 20 to 30° C., in natural light, and relative humidity of 57% to 72%.
(§4) 3 pots with 20 weed seeds per pot were treated in one treatment with 4 replications per treatment.
(§5) The agents were used for only once in the experiment. In the stage of weeds with 1.5-2 leaves, the weeds were thinned out to maintain 10 weeds per pot and 30 weeds for each treatment, then continued to be cultured to Conyza Canadensis 10 cm in height, other weeds 3-4 leaves stage and treated.
(§6) The well-cultured weeds were evenly placed on a platform with an area of 0.5 m^2, and a solution of agents was sprayed on the stems and leaves thereof by the 3WP-2000-type walking spray tower at a dosage of 450 kg/ha and at a spray pressure of 0.3 MPa. After all the solution was sprayed, the valve was closed. After 30 seconds, the door of the spray tower was opened, and the nutritional bowl was taken out. Then the valve was opened, and the spray tube was cleaned by spraying 50 ml of water. After the treatment, the weeds were routinely cultured in a greenhouse.
(§7) A method for investigating absolute number was employed, wherein whole seedlings of survival weeds were cut off with a blade along the soil surface, and the fresh weight of the weeds was weighed with an analytical balance. For dead weeds, the fresh weight thereof was zero.
(§8) The investigation was performed after 21 days of the treatment for only once.
(§9) An optimum ratio of the two active ingredients was determined by the actual control effect, characteristics of herbicides, and balance of a corresponding formula. Wherein, in the formula, X represented the fresh weight inhibition rate of the active ingredient A in a dosage of P, and Y represented the fresh weight inhibition rate of the active ingredient B in a dosage of Q. The statistical results were shown in the table 6.

[2] = system: Veronica didyma Tenore; assay: as above; details: for pest or weed control at 90 g/ha: B 90 g a.i./ha
Description: as §1, §2, §3, §4, §5, §6, §7, §8, §9

[3] = system: Lithospermum arvense; assay: as above
Description: as §1, §2, §3, §4, §5, §6, §7, §8, §9

[4] = system: Abutilon theophrasti; assay: Weeding effect in post-emergence stage; details: Dose 15 g/ha; level of fresh weight growth control rate
Summary of the method: (§10)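 Pot-grown weeds were sprayed at the 2-3 leaf stage, 2 weeks after sowing, with compound in acetone plus Tween 80 and 1.5 liter/ha methyl oleate emulsifiable concentrate, diluted in water. Doses were 500, 250, 125, 60, 30, 15, 7.5 g/ha. Growth control was scored after 3 weeks in greenhouse; mean of three replicates.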

[5] = system: Alopecurus japonicus; assay: Weeding effect in post-emergence stage; details: Dose 15 g/ha; level of fresh weight growth control rate
Summary of the method: as §10

[6] = system: Digitaria sanguinalis; assay: Weeding effect in post-emergence stage; details: Dose 15 g/ha; level of fresh weight growth control rate
Summary of the method: as §10

[7] = system: Eleusine indica; assay: Weeding effect in post-emergence stage; details: Dose 15 g/ha; level of fresh weight growth control rate
Summary of the method: as §10

[8] = system: Setaria viridis; assay: Weeding effect in post-emergence stage; details: Dose 15 g/ha; level of fresh weight growth control rate
Summary of the method: as §10

[9] = system: Echinochloa crusgalli; assay: Weeding effect in post-emergence stage; details: Dose 15 g/ha; level of fresh weight growth control rate
Summary of the method: as §10

[10] = system: Abutilon theophrasti; assay: Weeding effect in pre-emergence stage; details: 30 g/ha, 4 weeks
Summary of the method: (§11)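 Test compounds were dissolved in acetone with tween 80, diluted with water and sprayed right after sowing, with seeds covered by 0.5-2 cm of soil. Rates were 500 to 7.5 g/ha. Growth control was scored against activity-level criteria after 4 weeks in the greenhouse.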

[11] = system: Amaranthus retroflexus; assay: Weeding effect in pre-emergence stage; details: 30 g/ha, 4 weeks
Summary of the method: as §11

[12] = system: Capsella bursa-pastoris; assay: Weeding effect in pre-emergence stage; details: 30 g/ha, 4 weeks
Summary of the method: as §11

[13] = system: Descurainia sophia; assay: Weeding effect in pre-emergence stage; details: 30 g/ha, 4 weeks
Summary of the method: as §11

[14] = system: Setaria viridis; assay: Weeding effect in pre-emergence stage; details: 30 g/ha, 4 weeks
Summary of the method: as §11

[15] = system: Veronica didyma Tenore; assay: Weeding effect in pre-emergence stage; details: 30 g/ha, 4 weeks
Summary of the method: as §11

[16] = system: Peanut; assay: Pre-emergence stage, crop selectivity; details: 30 g/ha, 4 weeks
Summary of the method: as §11

[17] = system: Soybeans; assay: Pre-emergence stage, crop selectivity; details: 30 g/ha, 4 weeks
Summary of the method: as §11

[18] = system: corn; assay: Pre-emergence stage, crop selectivity; details: 30 g/ha, 4 weeks
Summary of the method: as §11

[19] = system: cotton; assay: Pre-emergence stage, crop selectivity; details: 30 g/ha, 4 weeks
Summary of the method: as §11

[20] = foliar, Eclipta prostrate, foliage, read-out: Control effect (%) of B applied alone (B)
[21] = Eclipta, foliar, read-out: Control effect (%) of B applied alone (B)
[22] = Veronica polita, foliar, Veronica didyma Tenore, foliage, read-out: Control effect (%) of B applied alone (B)
[23] = Veronica polita, foliar, read-out: Control effect (%) of B applied alone (B)

CC(C)N1C(=O)c2ccccc2NS1(=O)=O [bentazone]
pest or weed control at 150 g/ha [1, 20]: 30.2%

COc1c(Cl)ccc(Cl)c1C(=O)O [dicamba]
pest or weed control at 150 g/ha ([2]; Veronica polita, foliar, Veronica didyma Tenore, foliage, B 150 g a.i./ha, read-out: Control effect (%) of B applied alone (B)): 29.7%

C#CCN(C)c1c(C#N)cnn1-c1nn2c(c1Cl)CCCC2 [pyraclonil]
Control effect (%) of B applied alone (B) ([3]; B 75 g a.i./ha): 37.9%

COC(=O)c1nc(-c2ccc(Cl)c(OC)c2F)cc(N)c1Cl [halauxifen-methyl]
Control effect (%) of B applied alone (B) ([2]; Veronica didyma Tenore, foliage, B 3 g a.i./ha): 35.6%

Cc1nn(-c2cc(NS(C)(=O)=O)c(Cl)cc2Cl)c(=O)n1C(F)F [sulfentrazone]
Control effect (%) of B applied alone (B) ([3]; B 90 g a.i./ha): 26.5%

COC(=O)Nc1cccc(OC(=O)Nc2cccc(C)c2)c1 [phenmedipham]
pest or weed control at 300 g/ha [1, 21]: 20.8%

CCC(=O)Nc1ccc(Cl)c(Cl)c1 [propanil]
pest or weed control at 300 g/ha ([1]; foliar, Eclipta prostrate, foliage, B 300 g a.i./ha, read-out: Control effect (%) of B applied alone (B)): 21.7%

C[C@@H](Oc1nc(F)c(Cl)c(N)c1Cl)C(=O)OCC1CCCO1 (stereo partly drawn) [Cpd B2]
pest or weed control at 90 g/ha [2, 22]: 42.1%

Cc1cc(Cl)ccc1OCC(=O)O [2-methyl-4-chlorophenoxy acetic acid, 2-methyl-4-chlorophenoxyacetic acid]
pest or weed control at 150 g/ha [2, 23]: 39.3%

CCNc1nc(Cl)nc(NC(C)(C)C)n1 [terbuthylazine]
pest or weed control at 150 g/ha [1, 20]: 31.7%

Nc1cc(Cl)nc(C(=O)O)c1Cl [aminopyralid]
Control effect (%) of B applied alone (B) ([2]; Veronica didyma Tenore, foliage, B 30 g a.i./ha): 32.2%

CCOC(=O)Nc1cccc(OC(=O)Nc2ccccc2)c1 [desmedipham]
pest or weed control at 300 g/ha [1, 21]: 16.2%

C#CCN1C(=O)COc2cc(F)c(N3C(=O)C4=C(CCCC4)C3=O)cc21 [flumioxazin]
Control effect (%) of B applied alone (B) ([3]; B 7.5 g a.i./ha): 29.4%

O=C(O)COc1ccc(Cl)cc1Cl [2,4-dichlorophenoxy acetic acid]
pest or weed control at 150 g/ha [2, 23]: 32.6%

CC(C)c1ccc(NC(=O)N(C)C)cc1 [isoproturon]
pest or weed control at 225 g/ha [1, 20]: 33.9%

O=C(O)COc1nc(Cl)c(Cl)cc1Cl [triclopyr]
pest or weed control at 90 g/ha [2, 22]: 34.2%

CSc1nnc(C(C)(C)C)c(=O)n1N [metribuzin]
pest or weed control at 15 g/ha ([1]; foliar, Eclipta prostrate, foliage, B 15 g a.i./ha, read-out: Control effect (%) of B applied alone (B)): 36.3%

Nc1c(Cl)c(F)nc(OCC(=O)O)c1Cl [fluroxypyr]
pest or weed control at 60 g/ha ([2]; Veronica polita, foliar, Veronica didyma Tenore, foliage, B 60 g a.i./ha, read-out: Control effect (%) of B applied alone (B)): 39.3%

CC(C)Oc1cc(-n2nc(C(C)(C)C)oc2=O)c(Cl)cc1Cl [oxadiazon]
Control effect (%) of B applied alone (B) ([3]; B 90 g a.i./ha): 24.3%

N#Cc1cc(Br)c(O)c(Br)c1 [bromoxynil]
pest or weed control at 60 g/ha ([1]; foliar, Eclipta prostrate, foliage, B 60 g a.i./ha, read-out: Control effect (%) of B applied alone (B)): 41.2%

Nc1c(Cl)c(Cl)nc(C(=O)O)c1Cl [picloram]
pest or weed control at 300 g/ha ([2]; Veronica polita, foliar, Veronica didyma Tenore, foliage, B 300 g a.i./ha, read-out: Control effect (%) of B applied alone (B)): 43.6%

CC(C)c1nn(C(=O)NC(C)(C)C)c(=O)n1N [amicarbazone]
Control effect (%) of B applied alone (B) ([1]; Eclipta prostrate, foliage, B 60 g a.i./ha): 43.7%

CCOC(=O)C(Cl)Cc1cc(-n2nc(C)n(C(F)F)c2=O)c(F)cc1Cl (stereo not drawn) [carfentrazone-ethyl]
Control effect (%) of B applied alone (B) ([3]; B 4.5 g a.i./ha): 27.2%

CCC(C)n1c(=O)[nH]c(C)c(Br)c1=O (stereo not drawn) [bromacil]
pest or weed control at 450 g/ha [1, 21]: 28.4%

CC(C)N(C)S(=O)(=O)NC(=O)c1cc(-n2c(=O)cc(C(F)(F)F)n(C)c2=O)c(F)cc1Cl [saflufenacil]
Control effect (%) of B applied alone (B) ([3]; B 0.75 g a.i./ha): 39.7%

O=C(O)c1nc(Cl)ccc1Cl [clopyralid]
pest or weed control at 45 g/ha ([2]; Veronica polita, foliar, Veronica didyma Tenore, foliage, B 45 g a.i./ha, read-out: Control effect (%) of B applied alone (B)): 28.9%

COC[C@@H](O/N=C/c1cc(-n2c(=O)cc(C(F)(F)F)n(C)c2=O)c(F)cc1Cl)C(=O)OC [333(R)]
Weeding effect in post-emergence stage, Abutilon theophrasti [4]: 5 (Level 5: growth control rate is above 85%) | Weeding effect in post-emergence stage, Alopecurus japonicus [5]: 5 (Level 5: growth control rate is above 85%) | Weeding effect in post-emergence stage, Digitaria sanguinalis [6]: 5 (Level 5: growth control rate is above 85%) | Weeding effect in post-emergence stage, Eleusine indica [7]: 5 (Level 5: growth control rate is above 85%) | Weeding effect in post-emergence stage, Setaria viridis [8]: 5 (Level 5: growth control rate is above 85%) | Weeding effect in post-emergence stage, Echinochloa crusgalli [9]: 5 (Level 5: growth control rate is above 85%) | activity level (growth control rate) Abutilon theophrasti [10]: 5 (Level 5: growth control rate is above 85%) | activity level (growth control rate) Amaranthus retroflexus [11]: 5 (Level 5: growth control rate is above 85%) | activity level (growth control rate) Capsella bursa-pastoris [12]: 5 (Level 5: growth control rate is above 85%) | activity level (growth control rate) Descurainia sophia [13]: 5 (Level 5: growth control rate is above 85%) | activity level (growth control rate) Setaria viridis [14]: 5 (Level 5: growth control rate is above 85%) | activity level (growth control rate) Veronica didyma Tenore [15]: 5 (Level 5: growth control rate is above 85%) | plant damage level Peanut [16]: 0 (Level 0: growth control rate is less than 5%) | plant damage level Soybeans [17]: 0 (Level 0: growth control rate is less than 5%) | plant damage level Corn [18]: 0 (Level 0: growth control rate is less than 5%) | plant damage level Cotton [19]: 0 (Level 0: growth control rate is less than 5%)

COc1c(Cl)ccc(-c2nc(C(=O)OCc3ccccc3)c(Cl)c(N)c2F)c1F [florpyrauxifen benzyl]
Control effect (%) of B applied alone (B) ([2]; Veronica didyma Tenore, foliage, B 15 g a.i./ha): 50.3%

Cc1ccc(NC(=O)N(C)C)cc1Cl [chlorotoluron]
pest or weed control at 225 g/ha [1, 20]: 24.5%

C[C@@H](O/N=C/c1cc(-n2c(=O)cc(C(F)(F)F)n(C)c2=O)c(F)cc1Cl)C(=O)OCCF [216(R)]
Weeding effect in post-emergence stage, Abutilon theophrasti [4]: 5 (Level 5: growth control rate is above 85%) | Weeding effect in post-emergence stage, Alopecurus japonicus [5]: 4 (Level 4: growth control rate is greater than or equal to 60% and less than 85%) | Weeding effect in post-emergence stage, Digitaria sanguinalis [6]: 5 (Level 5: growth control rate is above 85%) | Weeding effect in post-emergence stage, Eleusine indica [7]: 5 (Level 5: growth control rate is above 85%) | Weeding effect in post-emergence stage, Setaria viridis [8]: 5 (Level 5: growth control rate is above 85%) | Weeding effect in post-emergence stage, Echinochloa crusgalli [9]: 5 (Level 5: growth control rate is above 85%) | activity level (growth control rate) Abutilon theophrasti [10]: 5 (Level 5: growth control rate is above 85%) | activity level (growth control rate) Amaranthus retroflexus [11]: 5 (Level 5: growth control rate is above 85%) | activity level (growth control rate) Capsella bursa-pastoris [12]: 5 (Level 5: growth control rate is above 85%) | activity level (growth control rate) Descurainia sophia [13]: 5 (Level 5: growth control rate is above 85%) | activity level (growth control rate) Setaria viridis [14]: 5 (Level 5: growth control rate is above 85%) | activity level (growth control rate) Veronica didyma Tenore [15]: 5 (Level 5: growth control rate is above 85%) | plant damage level Peanut [16]: 0 (Level 0: growth control rate is less than 5%) | plant damage level Soybeans [17]: 0 (Level 0: growth control rate is less than 5%) | plant damage level Corn [18]: 0 (Level 0: growth control rate is less than 5%) | plant damage level Cotton [19]: 0 (Level 0: growth control rate is less than 5%)
